“Also recorded” adds a separate entry of the source.
Key:
Type in all cases: cell-based, human
A549 cells [1] = test: Desensitization of pretreated A549 cells to stimulation with ROCK inhibitor Y-27632; conditions: pretreatment 10 micromolar ~1 hour, then Y-27632 at EC100 (10 micromolar)
Description: FIG. 19 The optical biosensor DMR signals of human lung cancer cell line A549 in response to a well-known Rho kinase inhibitor […] (10 micromolar) in the absence (“buffer”) and presence of two compounds (the Rho kinase inhibitor Y27632, and another Rho kinase inhibitor “compound”). Either of these two inhibitors at 10 micromolar was used to pretreat the A549 cells for ˜1 hr, before the stimulation with Y27632. The desensitization of cells to the second stimulation with Y27632 is an indicator that the compound used for the pretreatment of the cells is a Rho kinase inhibitor.
(§1) For biosensor cellular assays, molecule solutions were made by diluting the stored concentrated solutions with the HBSS (1× Hanks balanced salt solution, plus 20 mM Hepes, pH 7.1), and transferred into a 384 well polypropylene molecule storage plate to prepare a molecule source plate. Both molecule and marker source plates were made separately when a two-step assay was performed. In parallel, the cells were washed twice with the HBSS and maintained in 30 μl of the HBSS to prepare a cell assay plate. Both the cell assay plate and the molecule and marker source plate(s) were then incubated in the hotel of the reader system. After ˜1 hr of incubation the baseline wavelengths of all biosensors in the cell assay microplate were recorded and normalized to zero. […]

HepG2 cells [2] = test: Label-free RWG biosensor DMR assay, agonism mode, HepG2 cells; conditions: primary profile
Procedure: (§2) Cells were typically grown using ˜1 to 2×10^4 cells per well at passage 3 to 15 suspended in 50 μl of the corresponding culture medium in the biosensor microplate, and were cultured at 37° C. under air/5% CO2 for ˜1 day. Except for A431 which underwent one day culture followed by one starvation in serum free medium, all other cells were directly assayed without starvation. The confluency for all cells at the time of assays was ˜95% to 100%.
(§3) Epic® beta version wavelength interrogation system (Corning Inc., Corning, N.Y.) was used for whole cell sensing. This system consists of a temperature-control unit, an optical detection unit, and an on-board liquid handling unit with robotics. The detection unit is centered on integrated fiber optics, and enables kinetic measures of cellular responses with a time interval of ˜15 sec.
as §1, with “Both molecule and marker source plates were made separately when a two-step assay was performed. In parallel, the cells were washed twice with the HBSS and maintained in 30 μl of the HBSS to prepare a cell assay plate.” left out

HT-29 cells = test: Label-free RWG biosensor DMR assay, agonism mode, HT-29 cells; conditions: primary profile
Procedure: as §2, §3
as §1, with “Both molecule and marker source plates were made separately when a two-step assay was performed. In parallel, the cells were washed twice with the HBSS and maintained in 30 μl of the HBSS to prepare a cell assay plate.” left out

A549 cells [3] = test: Label-free RWG (Epic) biosensor DMR assay, agonism mode, A549 cells; conditions: primary profile
Procedure: as §2, §3
(§4) For biosensor cellular assays, molecule solutions were made by diluting the stored concentrated solutions with the HBSS (1× Hanks balanced salt solution, plus 20 mM Hepes, pH 7.1), and transferred into a 384 well polypropylene molecule storage plate to prepare a molecule source plate. Both molecule and marker source plates were made separately when a two-step assay was performed. In parallel, the cells were washed twice with the HBSS and maintained in 30 μl of the HBSS to prepare a cell assay plate. Both the cell assay plate and the molecule and marker source plate(s) were then incubated in the hotel of the reader system. After ˜1 hr of incubation the baseline wavelengths of all biosensors in the cell assay microplate were recorded and normalized to zero. Afterwards, a 2 to 10 minute continuous recording was carried out to establish a baseline, and to ensure that the cells reached a steady state. Cellular responses were then triggered by pipetting 10 μl of the marker solutions into the cell assay plate using the on-board liquid handler.
(§5) All studies were carried out at a controlled temperature (28° C.). At least two independent sets of experiments, each with at least three replicates, were performed.

A549 cells [4] = test: DMR modulation of marker-induced responses (two-step assay) in A549 cells; conditions: for modulation of the pinacidil response in A549 cells: compound pretreatment ~1 hr (10 micromolar), then pinacidil 10 micromolar
Procedure: The index was generated after normalizing each marker-induced DMR signal in the presence of the inhibitor to its corresponding signal in the absence of the inhibitor. The percentage of modulation for each marker by the inhibitor was plotted as a function of the marker. As shown from left to right in a sequential order, the DMR events used for the basis of the modulation percentage calculation are: the N-DMR (50 min after stimulation) for pinacidil in A549, the P-DMR (50 min after stimulation) for forskolin in A549, the early P-DMR event (˜10 min after histamine stimulation) and the late P-DMR event (˜30 min after histamine stimulation) for histamine in A549, and the early P-DMR event (˜5 min after EGF stimulation) and the subsequent N-DMR event (˜30 min after EGF stimulation) for EGF in A431 cells. In all cases, the amplitudes of respective DMR events were used as the basis to calculate the percentages of modulation by the PI3K inhibitors. The same procedure was used to generate FIGS. 8 to 14.
as §2, §4
To study the influence of molecules on a marker-induced response, a second stimulation with the marker at a fixed dose (typically at EC80 or EC100) was applied. The resonant wavelengths of all biosensors in the microplate were normalized again to establish a second baseline, right before the second stimulation. The two stimulations were usually separated by ˜1 hr.
as §5

HepG2 cells [5] = test: DMR modulation of the ODN2006-induced response in HepG2 cells; conditions: inhibitor 10 micromolar, ODN2006 500 nM
Procedure: as §2
as §4, with “Cellular responses were then triggered by pipetting 10 μl of the marker solutions into the cell assay plate using the on-board liquid handler.” left out

## C[C@@H](N)[C@H]1CC[C@H](C(=O)Nc2ccncc2)CC1 [Y-27632]
A549 cells [1]
  desensitization of A549 cells to second stimulation with Y-27632: significantly caused the cells desensitize
HepG2 cells [2]
  DMR (biosensor) signal of the compound in HepG2 cells: net-zero DMR signal
HT-29 cells
  DMR (biosensor) signal of the compound in HT-29 cells: detectable, and dose-dependent biosensor signals
A549 cells [3]
  DMR (biosensor) signal of the compound in A549 cells: detectable, and dose-dependent biosensor signals; also recorded: characteristic negative DMR signal
A549 cells [4]
  modulation of the pinacidil response in A549 cells: complete or significant attenuation; also recorded: attenuated
A549 cells [4]; listed as Y027632
  modulation of the pinacidil response in A549 cells: dose-dependently attenuate
A549 cells [4]; listed as Y27632
  modulation of the pinacidil response in A549 cells: fully attenuated; also recorded: almost completely attenuated
A549 cells [4]; inhibitor 10 micromolar, forskolin 16 micromolar
  modulation of the forskolin response (P-DMR) in A549 cells: potentiated
A549 cells [4]; inhibitor 10 micromolar, histamine 10 micromolar
  modulation of the histamine response (early and late P-DMR) in A549 cells: potentiated
A549 cells [4]; pretreatment 10 micromolar
  modulation of the PMA response in A549 cells: potentiated
  modulation of the SLIGKV response in A549 cells: potentiated
  modulation of the poly(IC) response in A549 cells: potentiated
HepG2 cells [5]
  modulation of the ODN2006 DMR signal in HepG2 cells: potentiated

— US20120289432A1, “PI3K MODULATORS, RHO KINASE MODULATORS AND METHODS OF IDENTIFYING AND USING SAME” (Corning Incorporated, priority 2009, published 2012)
